Results published in US20210302113A1, “FLUORINATED DIAMINOOLEFINS AND METHODS OF USING THE SAME” (3M INNOVATIVE PROPERTIES COMPANY, priority 2017, published 2021).

Test: Thermal stability with absorbents, GC-FID purity after stirring at 60° C. for 24 h
Format: physicochemical
Protocol: The thermal stability was measured by charging a weighed amount of (E)-1,4-bis(perfluoromorpholino)but-2-ene (having a purity of 98.8%) into glass vials and then adding a weighed amount of absorbent. (The purity of the composition was measured by analyzing the sample using GC-FID and comparing the area of the peak of interest to the total peak areas in the chromatogram.) The mixture was stirred at 60° C. for 24 h and then analyzed by GC-FID. The percent purity of the treated sample was determined by the peak area of the (E)-1,4-bis(perfluoromorpholino)but-2-ene peak versus the total peak areas in the GC-FID chromatogram.

What does the source list for `FC1(F)OC(F)(F)C(F)(F)N(C/C=C/CN2C(F)(F)C(F)(F)OC(F)(F)C2(F)F)C1(F)F` [(E)-1,4-bis(perfluoromorpholino)but-2-ene]?
GC Purity (4 Angstrom Molecular Sieves, starting purity 98.8%): 98.8%; GC Purity (Activated Carbon, starting purity 98.8%): 98.8%; GC Purity (Basic Alumina, starting purity 98.8%): 99.5%; GC Purity (K2CO3, starting purity 98.8%): 98.9%; GC Purity (No Adsorbent, starting purity 98.8%): 98.8%; GC Purity (Silica Gel, starting purity 98.8%): 98.8%
